The assay deals with T1, viral kinase pUL-97 (Human cytomegalovirus, UniProt P16788).
T1 construct: The pUL-97 gene was cloned into a baculovirus vector; GST (glutathione S-transferase) (N); made in house; host or cells: Sf9 insect cells, baculovirus
Kind of assay: UL97 kinase assay on Immobilon plate. The conditions noted are these: inhibition of UL 97 kinase activity, read-out: Activity Class [A, B, C]. It counts as biochemical. The essentials: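 Compound was titrated into a radiometric reaction of Sf9-expressed GST-UL97 kinase, incubated 1 h at 30 °C in Tris-HCl pH 7.5/MnCl2/DTT buffer before EDTA stop. MBP substrate and ATP (3 μM in the added assay buffer) were supplied with γ-[33P]ATP. Labelled product bound to Immobilon filter was washed and counted by scintillation.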

[1] abbreviates: class by IC50 / % inhibition at 10 μM or 100 μM.
Where [2] appears, read: class by IC50 / % inhibition at 10 or 100 μM.

Read-outs that look alike come from different tables or passages of the source.

T1 sequence (P16788 whole entry): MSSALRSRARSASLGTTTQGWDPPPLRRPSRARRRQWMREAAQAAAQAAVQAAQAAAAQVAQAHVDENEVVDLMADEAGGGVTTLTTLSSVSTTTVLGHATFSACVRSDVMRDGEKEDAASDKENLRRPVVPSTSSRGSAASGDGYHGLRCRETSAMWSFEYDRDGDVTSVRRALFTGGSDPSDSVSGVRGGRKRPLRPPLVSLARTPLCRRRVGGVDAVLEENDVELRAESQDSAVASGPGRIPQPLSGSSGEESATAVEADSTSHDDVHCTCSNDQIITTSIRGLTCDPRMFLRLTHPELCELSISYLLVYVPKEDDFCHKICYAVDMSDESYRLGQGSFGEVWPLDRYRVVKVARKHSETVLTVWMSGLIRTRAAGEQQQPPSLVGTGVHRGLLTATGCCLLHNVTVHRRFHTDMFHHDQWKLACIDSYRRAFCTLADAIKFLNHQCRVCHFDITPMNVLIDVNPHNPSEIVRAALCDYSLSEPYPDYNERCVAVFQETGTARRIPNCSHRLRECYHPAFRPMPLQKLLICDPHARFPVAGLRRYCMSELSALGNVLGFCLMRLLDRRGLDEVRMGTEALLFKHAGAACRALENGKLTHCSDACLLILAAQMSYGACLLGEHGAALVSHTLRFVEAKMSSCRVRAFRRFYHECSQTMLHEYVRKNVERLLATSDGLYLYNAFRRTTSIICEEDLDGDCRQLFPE

In the case of `c1ccc(N2CCN(c3cncc(-c4ccsc4)n3)CC2)nc1` [compound 350, 4-Pyridin-2-yl-6′-thiophen-3-yl-3,4,5,6-tetrahydro-2H-[1,2′]bipyrazinyl], the IC50 under setting [1] fell in the range of 1 to 10 µM. With `COc1ccc(-c2cncc(N3CCN(c4cccc5[nH]ccc45)CC3)n2)cc1` [compound 38, 4-(1H-Indol-4-yl)-6′-(4-methoxy-phenyl)-3,4,5,6-tetrahydro-2H-[1,2′]bipyrazinyl], the IC50 under setting [2] fell in the range of 1 to 10 µM. With `Cc1ccc(N2CCN(c3cncc(-c4ccc(F)c(Cl)c4)n3)CC2)c(C)c1` [compound 281, 6′-(3-Chloro-4-fluoro-phenyl)-4-(2,4-dimethyl-phenyl)-3,4,5,6-tetrahydro-2H-[1,2′]bipyrazinyl], under setting [1], the IC50 was in the range of 10 to 100 µM. On to `CN(C)c1ccc(-c2cncc(N3CCN(c4cnccn4)CC3)n2)cc1` [compound 343, Dimethyl-[4-(2′,3′,5′,6′-tetrahydro-[2,1′;4′,2″]terpyrazin-6-yl)-phenyl]-amine], for which the IC50 under setting [1] fell in the range of 1 to 10 µM.

Turning to `Fc1cccc(-c2cncc(N3CCN(c4ccccc4)CC3)n2)c1` [compound 194, 6′-(3-Fluoro-phenyl)-4-phenyl-3,4,5,6-tetrahydro-2H-[1,2′]bipyrazinyl], the IC50 under setting [2] fell in the range of 10 to 100 µM.

For `CN(C)c1ccc(-c2cncc(N3CCC(c4ccccc4)CC3)n2)cc1` [compound 280, Dimethyl-{4-[6-(4-phenyl-piperidin-1-yl)-pyrazin-2-yl]-phenyl}-amine], the IC50 under setting [1] lay in the range of 1 to 10 µM. Take `Fc1ccc(N2CCN(c3cncc(-c4cccc5ccccc45)n3)CC2)c(F)c1` [compound 143, 4-(2,4-Dinfluoro-phenyl)-6′-naphthalen-1-yl-3,4,5,6-tetrahydro-2H-[1,2′]bipyrazinyl]: under setting [2], the IC50 is 10 to 100 µM. On the same count and under the same terms, in the case of `COc1ccccc1N1CCN(c2cncc(-c3ccc4ccccc4c3)n2)CC1` [compound 86, 4-(2-Methoxy-phenyl)-6′-naphthalen-2-yl-3,4,5,6-tetrahydro-2H-[1,2′]bipyrazinyl] it was 1 to 10 µM. With `Fc1ccc(N2CCN(c3cncc(-c4cccc(F)c4)n3)CC2)cc1` [compound 181, 4-(4-Fluoro-phenyl)-6′-(3-fluoro-phenyl)-3,4,5,6-tetrahydro-2H-[1,2′]bipyrazinyl], the IC50 under setting [2] is 10 to 100 µM. Consider `Cc1ccc(-c2cncc(N3CCN(c4ccccn4)CC3)n2)cc1C` [compound 50, 6′-(3,4-Dimethyl-phenyl)-4-pyridin-2-yl-3,4,5,6-tetrahydro-2H-[1,2′]bipyrazinyl], for which the IC50 under setting [2] was in the range of 1 to 10 µM. Still for that read-out and setting: in the case of `Cc1ccc(-c2cncc(N3CCN(c4cccc(C(F)(F)F)c4)CC3)n2)cc1` [compound 155, 6′-p-Tolyl-4-(3-trifluoromethyl-phenyl)-3,4,5,6-tetrahydro-2H-[1,2′]bipyrazinyl] it was 10 to 100 µM.

For `Clc1ccc(-c2cncc(NCc3ccco3)n2)cc1` [compound 26, [6-(4-Chloro-phenyl)-pyrazin-2-yl]-furan-2-ylmethyl-amine], the IC50 under setting [2] was less than 1 µM.

Consider `COc1ccc(N2CCN(c3cncc(-c4cccc(C)c4)n3)CC2)cc1OC` [compound 223, 4-(3,4-Dimethoxy-phenyl)-6′-m-tolyl-3,4,5,6-tetrahydro-2H-[1,2′]bipyrazinyl], for which the IC50 under setting [1] was in the range of 1 to 10 µM. For the compound `N#Cc1ccc(-c2cncc(N3CCN(c4ccncc4)CC3)n2)cc1` [compound 131, 4-(4-Pyridin-4-yl-3,4,5,6-tetrahydro-2H-[1,2′]bipyrazinyl-6′-yl)-benzonitrile], the IC50 under setting [2] fell in the range of 1 to 10 µM. Same read-out and setting: the figure for `Clc1cccc(-c2cncc(N3CCN(c4ccccn4)CC3)n2)c1` [compound 53, 6′-(3-Chloro-phenyl)-4-pyridin-2-yl-3,4,5,6-tetrahydro-2H-[1,2′]bipyrazinyl] is 1 to 10 µM; for `CCOc1ccc(-c2cncc(N3CCN(c4cccc(Cl)c4)CC3)n2)cc1` [compound 129, 4-(3-Chloro-phenyl)-6′-(4-ethoxy-phenyl)-3,4,5,6-tetrahydro-2H-[1,2′]bipyrazinyl] it is 1 to 10 µM. On to `COc1ccc(N2CCN(c3cncc(-c4ccccc4C)n3)CC2)cc1OC` [compound 262, 4-(3,4-Dimethoxy-phenyl)-6′-o-tolyl-3,4,5,6-tetrahydro-2H-[1,2′]bipyrazinyl], for which the IC50 under setting [1] fell in the range of 10 to 100 µM. `CSc1ccc(-c2cncc(N3CCN(c4ccncc4)CC3)n2)cc1` [compound 66, 6′-(4-Methylsulfanyl-phenyl)-4-pyridin-4-yl-3,4,5,6-tetrahydro-2H-[1,2′]bipyrazinyl]: the IC50 under setting [2] is less than 1 µM.

Regarding `FC(F)(F)c1cccc(N2CCN(c3cncc(-c4csc5ccccc45)n3)CC2)c1` [compound 158, 6′-Benzo[b]thiophen-3-yl-4-(3-trifluoromethyl-phenyl)-3,4,5,6-tetrahydro-2H-[1,2′]bipyrazinyl], under setting [2], the IC50 fell in the range of 10 to 100 µM.

Regarding `Oc1ccc(-c2cncc(NCc3cccs3)n2)cc1` [compound 30, 4-{6-[(Thiophen-2-ylmethyl)-amino]-pyrazin-2-yl}-phenol], the IC50 under setting [2] is less than 1 µM. As to `NC(=O)c1ccccc1-c1cncc(N2CCN(c3ccncc3)CC2)n1` [Comp. 70, 2-(4-Pyridin-4-yl-3,4,5,6-tetrahydro-2H-[1,2′]bipyrazinyl-6′-yl)-benzamide], the IC50 under setting [2] lay in the range of 10 to 100 µM. Take `CSc1ccc(-c2cncc(N3CCC(c4ccccc4)CC3)n2)cc1` [compound 361, 2-(4-Methylsulfanyl-phenyl)-6-(4-phenyl-piperidin-1-yl)-pyrazine]: the IC50 under setting [1] was 1 to 10 µM.

In the case of `CSc1ccc(-c2cncc(N3CCN(c4ccc(C(C)=O)cc4)CC3)n2)cc1` [compound 159], the IC50 under setting [2] is less than 1 µM. On to `Oc1ccc(-c2cncc(N3CCN(c4ccncc4)CC3)n2)cc1` [compound 57, 4-(4-Pyridin-4-yl-3,4,5,6-tetrahydro-2H-[1,2′]bipyrazinyl-6′-yl)-phenol], for which, under setting [2], the IC50 is 10 to 100 µM. With `COc1ccc(N2CCN(c3cncc(-c4cc5ccccc5o4)n3)CC2)cc1` [compound 282, 6′-Benzofuran-2-yl-4-(4-methoxy-phenyl)-3,4,5,6-tetrahydro-2H-[1,2′]bipyrazinyl], the IC50 under setting [1] was in the range of 1 to 10 µM. With `COc1ccc(N2CCN(c3cncc(-c4cccc(C)c4C)n3)CC2)cc1OC` [compound 226, 4-(3,4-Dimethoxy-phenyl)-6′-(2,3-dimethyl-phenyl)-3,4,5,6-tetrahydro-2H-[1,2′]bipyrazinyl], under setting [1], the IC50 lay within 10 to 100 µM. For the compound `Fc1ccc(-c2cncc(N3CCN(c4ccncc4)CC3)n2)cc1` [compound 76, 6′-(4-Fluoro-phenyl)-4-pyridin-4-yl-3,4,5,6-tetrahydro-2H-[1,2′]bipyrazinyl], under setting [2], the IC50 fell in the range of 1 to 10 µM. On the same count and under the same terms, the figure for `COc1ccc2cc(-c3cncc(N4CCN(c5ccccc5OC)CC4)n3)ccc2c1` [compound 187, 6′-(6-Methoxy-naphthalen-2-yl)-4-(2-methoxy-phenyl)-3,4,5,6-tetrahydro-2H-[1,2′]bipyrazinyl] is 10 to 100 µM. With `Cc1cccc(N2CCN(c3cncc(-c4ccc(C(N)=O)cc4)n3)CC2C)c1` (stereo not shown) [compound 299, 4-(3-Methyl-4-m-tolyl-3,4,5,6-tetrahydro-2H-[1,2′]bipyrazinyl-6′-yl)-benzamide], under setting [1], the IC50 was in the range of 1 to 10 µM.

In the case of `c1ccc2cc(-c3cncc(N4CCN(c5ccncc5)CC4)n3)ccc2c1` [Comp. 72, 6′-Naphthalen-2-yl-4-pyridin-4-yl-3,4,5,6-tetrahydro-2H-[1,2-′]bipyrazinyl], under setting [2], the IC50 is less than 1 µM. With `FC(F)(F)c1ccc(-c2cncc(N3CCN(c4cnccn4)CC3)n2)cc1` [compound 345, 6-(4-Trifluoromethyl-phenyl)-2′,3′,5′,6′-tetrahydro-[2,1′;4′,2″]terpyrazine], the IC50 under setting [1] lay within 1 to 10 µM. Regarding `COc1ccc(N2CCN(c3cncc(-c4cc(C)cc(C)c4)n3)CC2)cc1OC` [compound 170, 4-(3,4-Dimethoxy-phenyl)-6′-(3,5-dimethyl-phenyl)-3,4,5,6-tetrahydro-2H-[1,2′]bipyrazinyl], under setting [2], the IC50 was 10 to 100 µM.

For the compound `Fc1cc(-c2cncc(N3CCN(c4cnccn4)CC3)n2)ccc1-c1ccccc1` [compound 334, 6-(2-Fluoro-biphenyl-4-yl)-2′,3′,5′,6′-tetrahydro-[2,1′;4′,2″]terpyrazine], the IC50 under setting [1] was 10 to 100 µM. For the compound `CN(C)c1ccc(-c2cncc(N3CCN(c4cccc(Cl)c4)CC3)n2)cc1` [compound 182, {4-[4-(3-Chloro-phenyl)-3,4,5,6-tetrahydro-2H-[1,2′]bipyrazinyl-6′-yl]-phenyl}-dimethyl-amine], the IC50 under setting [2] lay within 10 to 100 µM. On the same count and under the same terms, in the case of `Fc1ccc(-c2cncc(NCc3ccco3)n2)c(F)c1` [compound 48, [6-(2,4-Difluoro-phenyl)-pyrazin-2-yl]-furan-2-ylmethyl-amine] it was 1 to 10 µM.

With `Cc1cccc(N2CCN(c3cncc(-c4ccoc4)n3)CC2)c1C` [compound 346, 4-(2,3-Dimethyl-phenyl)-6′-furan-3-yl-3,4,5,6-tetrahydro-2H-[1,2′]bipyrazinyl], the IC50 under setting [1] was in the range of 10 to 100 µM. Turning to `FC(F)(F)c1ccc(-c2cncc(N3CCN(c4ccccc4)CC3)n2)cc1` [compound 193, 4-Phenyl-6′-(4-trifluoromethyl-phenyl)-3,4,5,6-tetrahydro-2H-[1,2′]bipyrazinyl], the IC50 under setting [2] was in the range of 1 to 10 µM. On to `COc1ccccc1N1CCN(c2cncc(-c3ccccc3C(C)=O)n2)CC1` [compound 240, 1-{2-[4-(2-Methoxy-phenyl)-3,4,5,6-tetrahydro-2H-[1,2′]bipyrazinyl-6′-yl]-phenyl}-ethanone], for which the IC50 under setting [1] is 10 to 100 µM. On to `c1ccc(C2CCN(c3cncc(-c4cccc5ccccc45)n3)CC2)cc1` [compound 318, 2-Naphthalen-1-yl-6-(4-phenyl-piperidin-1-yl)-pyrazine], for which the IC50 under setting [1] lay within 10 to 100 µM.

`COc1ccc(N2CCN(c3cncc(-c4ccc(C(N)=O)cc4)n3)CC2)cc1OC` [compound 20, 4-[4-(3,4-Dimethoxyphenyl)-3,4,5,6-tetrahydro-2H-[1,2′]bipyrazinyl-6′-yl)-benzamide]: the IC50 under setting [2] was less than 1 µM.

Source of the values: US20080194574A1, “Pyrazine Derivatives As Effective Compounds Against Infectious Diseases” (AXXIMA PHARMACEUTICALS AG, priority 2003, published 2008).
